# Measured values as given in article PMC7835349 (Communications Biology, 2021).
# “And” between values parts separate entries of the source, which are not always exact repeats. Identical values can stand only once.
# Key:
# RS4;11 xenograft = assay: RS4;11 mouse xenograft efficacy (tumour volume); type: in vivo, C.B-17 SCID mouse; details: RS4;11 xenograft, 10 mg/kg or equivalent, in mm³ (unit assumed)
# Experimental: Female C.B.−17 SCID mice were purchased from Charles River Laboratories. Mice were 5–8 weeks old at the time of tumour implantation. All xenograft studies were conducted at our Association for the Assessment and Accreditation of Laboratory Animal Care accredited facility in Waltham, MA in accordance with ethical regulations described in the guidelines established by the internal Institutional Animal Care and Use Committee. The dendrimer conjugates were formulated in citrate/phosphate buffer pH 5.0, diluted 1:10 with 5% glucose containing 1% w/v Kolliphor HS15, and AZD4320 was formulated in 30% HP-β-CD and dosed as a weekly intravenous (IV) administration at a volume of 5 ml/kg at the indicated doses. Five million RS4;11, five million SUDHL-4 or five million OCI-LY-10 cells were injected subcutaneously in the right flank of mice in a volume of 0.1 ml. Tumour volumes (measured by caliper), animal body weight, and tumor condition were recorded twice weekly for the duration of the study. The tumour volume was calculated (taking length to be the longest diameter across the tumour and width to be the corresponding perpendicular diameter) using the formula: length (mm) x width (mm)^2/0.52. For efficacy studies, mice were randomized based on tumour volumes using stratified sampling and enrolled into control and treatment groups. Tumour growth inhibition from the start of treatment was quantified by measuring the difference in tumour volume between control and treated groups. Survival analysis was evaluated using Mantel-Cox test. Tumours were also taken for bioanalysis.
# telemetered rats = assay: Conscious rat telemetry (QRS amplitude, blood pressure, tolerability); details: for QRS amplitude (mV change): individual rats; for QRS amplitude (mV change), Mean: mean of rats;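 on all read-outs here: male Han Wistar rats carrying implanted telemetry transmitters, with ECG and arterial pressure recorded continuously while unrestrained in their home cage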
# From the text: Male Han Wistar rats were implanted with HD‐S11 transmitters (Data Sciences International, St. Paul, MN USA) under isoflurane anaesthesia, the telemetry transmitter was placed in the peritoneal cavity, the arterial blood pressure catheter was placed in the terminal abdominal aorta and the ECG electrodes were sutured, one at the dorsal surface of the xiphoid process and one at the anterior mediastinum, close to the right atrium[42]. Animals were allowed to recover for at least 2 weeks and were around 2–3 months at the time of experimentation. The animals were pair‐housed in standard rat cages with a non‐instrumented companion throughout the study. Cages were prepared with bedding material and enrichment.
# Telemetry recordings took place in the home cage. […] The animals were removed from the cage temporarily for dosing and blood sampling. Animals were not subject to restraint except where dosing and blood sampling was performed. Data acquisition used Dataquest Open A.R.T.™ with HEM software version 4.2 (Notocord Inc).
# For evaluation of AZD4320, n = 8 rats received single doses of 0 (vehicle: 30% Kleptose, pH9) or 10 mg/kg AZD4320, administered as a 30-min intravenous infusion. A cross-over study design was used, with an interval of 7 days between treatments.
# Data for all parameters were collected continuously during the recording period. The continuous data from each animal was binned into chosen time intervals of varying length and averaged to generate a single data point for each reported nominal time. Each reported nominal timepoint was then averaged across each of the animals tested for each dose level.
# [1] = rat, AZD4320 10 mg/kg, 0 h post dose
# [2] = rat, Dose 10 mg/kg (AZD4320 equivalent 10 for AZD4320, 3 for conjugates)
compound,measurement,setting,value
CN(CCO)CCC(CSc1ccccc1)Nc1ccc(S(=O)(=O)NC(=O)c2ccc(N3CCC(C(O)c4ccccc4-c4ccc(Cl)cc4)CC3)cc2)cc1S(=O)(=O)C(F)(F)F (stereo not drawn) [AZD4320],"Tumour volume, Geo Mean",RS4;11 xenograft; day 29,450.827
same,"Tumour volume, Geo Mean",RS4;11 xenograft; day 31,419.877
same,"Tumour volume, Geo Mean",RS4;11 xenograft; day 32,128.263
same,"Tumour volume, Geo Mean",RS4;11 xenograft; day 34,1
same,"Tumour volume, Geo Mean",RS4;11 xenograft; day 38,1
same,"Tumour volume, Geo Mean",RS4;11 xenograft; day 41,1
same,"Tumour volume, Geo Mean",RS4;11 xenograft; day 45,1
same,"Tumour volume, Geo Mean",RS4;11 xenograft; day 48,1
same,"Tumour volume, Geo Mean",RS4;11 xenograft; day 56,4.217
same,"Tumour volume, Geo Mean",RS4;11 xenograft; day 59,31.9033
same,decrease in QRS amplitude,"telemetered rats; rat, 10 mg/kg AZD4320",40%
same,rats in which dose was tolerated,"telemetered rats; rat, 10 mg/kg AZD4320, 8 rats evaluated",6 of the 8
same,QRS amplitude (mV change),telemetered rats; [1],0 mV
same,"QRS amplitude (mV change), Mean",telemetered rats; [1],0 mV
same,QRS amplitude (mV change),"telemetered rats; rat, AZD4320 10 mg/kg, 0.5 h post dose, 10 mg/kg",0.05 mV and -0.49 mV (2×) and -0.03 mV and 0.27 mV and -0.09 mV
same,"QRS amplitude (mV change), Mean","telemetered rats; rat, AZD4320 10 mg/kg, 0.5 h post dose",-0.13 mV
same,QRS amplitude (mV change),"telemetered rats; rat, AZD4320 10 mg/kg, 1 h post dose, 10 mg/kg",-0.55 mV and -0.92 mV and 0.04 mV and -0.24 mV and -0.19 mV and -0.87 mV
same,"QRS amplitude (mV change), Mean","telemetered rats; rat, AZD4320 10 mg/kg, 1 h post dose",-0.46 mV
same,QRS amplitude (mV change),"telemetered rats; rat, AZD4320 10 mg/kg, 1.5 h post dose, 10 mg/kg",-0.76 mV and -0.96 mV (2×) and 0.29 mV and -0.3 mV and -0.18 mV
same,"QRS amplitude (mV change), Mean","telemetered rats; rat, AZD4320 10 mg/kg, 1.5 h post dose",-0.48 mV
same,QRS amplitude (mV change),"telemetered rats; rat, AZD4320 10 mg/kg, 2 h post dose, 10 mg/kg",-0.73 mV and -0.96 mV and -0.38 mV and -0.26 mV (2×) and -1.03 mV
same,"QRS amplitude (mV change), Mean","telemetered rats; rat, AZD4320 10 mg/kg, 2 h post dose",-0.60 mV
same,QRS amplitude (mV change),"telemetered rats; rat, AZD4320 10 mg/kg, 3 h post dose, 10 mg/kg",-0.79 mV and -0.63 mV and -0.28 mV and -0.4 mV and -0.48 mV and -0.99 mV
same,"QRS amplitude (mV change), Mean","telemetered rats; rat, AZD4320 10 mg/kg, 3 h post dose",-0.60 mV
same,QRS amplitude (mV change),"telemetered rats; rat, AZD4320 10 mg/kg, 3.5 h post dose, 10 mg/kg",-0.8 mV and -0.81 mV and -0.54 mV and -0.38 mV and -0.47 mV and -1 mV
same,"QRS amplitude (mV change), Mean","telemetered rats; rat, AZD4320 10 mg/kg, 3.5 h post dose",-0.67 mV
same,QRS amplitude (mV change),"telemetered rats; rat, AZD4320 10 mg/kg, 4 h post dose, 10 mg/kg",-0.8 mV and -1.02 mV and -0.16 mV and -0.35 mV and -0.65 mV and -0.98 mV
same,"QRS amplitude (mV change), Mean","telemetered rats; rat, AZD4320 10 mg/kg, 4 h post dose",-0.66 mV
same,QRS amplitude (mV change),"telemetered rats; rat, AZD4320 10 mg/kg, 6 h post dose, 10 mg/kg",-0.76 mV and -1 mV and -0.2 mV and -0.16 mV and -0.57 mV and -0.7 mV
same,"QRS amplitude (mV change), Mean","telemetered rats; rat, AZD4320 10 mg/kg, 6 h post dose",-0.57 mV
same,QRS amplitude (mV change),"telemetered rats; rat, AZD4320 10 mg/kg, 8 h post dose, 10 mg/kg",-0.63 mV (3×) and 0.08 mV and -0.08 mV and -0.57 mV
same,"QRS amplitude (mV change), Mean","telemetered rats; rat, AZD4320 10 mg/kg, 8 h post dose",-0.41 mV
same,QRS amplitude (mV change),"telemetered rats; rat, AZD4320 10 mg/kg, 10 h post dose, 10 mg/kg",-0.56 mV and -0.75 mV and 0.54 mV and 0.03 mV and -0.61 mV and -0.59 mV
same,"QRS amplitude (mV change), Mean","telemetered rats; rat, AZD4320 10 mg/kg, 10 h post dose",-0.32 mV
same,QRS amplitude (mV change),"telemetered rats; rat, AZD4320 10 mg/kg, 12 h post dose, 10 mg/kg",-0.6 mV and -0.97 mV and -0.25 mV and 0.18 mV and -0.42 mV and -0.58 mV
same,"QRS amplitude (mV change), Mean","telemetered rats; rat, AZD4320 10 mg/kg, 12 h post dose",-0.44 mV
same,QRS amplitude (mV change),"telemetered rats; rat, AZD4320 10 mg/kg, 16 h post dose, 10 mg/kg",-0.44 mV and -0.8 mV and 0.61 mV and -0.14 mV and -0.6 mV and -0.72 mV
same,"QRS amplitude (mV change), Mean","telemetered rats; rat, AZD4320 10 mg/kg, 16 h post dose",-0.35 mV
same,QRS amplitude (mV change),"telemetered rats; rat, AZD4320 10 mg/kg, 24 h post dose, 10 mg/kg",-0.56 mV and -0.96 mV and -0.74 mV and -0.13 mV and -0.57 mV and -0.76 mV
same,"QRS amplitude (mV change), Mean","telemetered rats; rat, AZD4320 10 mg/kg, 24 h post dose",-0.62 mV
same,"QRS amplitude (mV change), Mean","telemetered rats; rat, AZD4320 10 mg/kg, […] post dose",-0.58 mV
same,Blood pressure decrease,telemetered rats; [2],Yes
same,QRS amplitude decrease,telemetered rats; [2],Yes
same,Tolerated?,telemetered rats; [2],6/8
same,effect on QRS amplitude,"telemetered rats; telemetered rat, AZD4320 10 mg/kg, conjugates 30 mg/kg IV",marked and prolonged reduction in QRS amplitude
